Data from PubChem BioAssay AID192 (DTP/NCI, 2004).
Where “and” joins values, the source holds several entries; their conditions need not be identical. Equal values may be shown once. Inconclusive results and toxic doses are left out.

Test system: BDF1 mice, B16 melanoma ip, median survival T/C
Test: NCI In Vivo Anticancer Drug Screen. Data for tumor model B16 Melanoma (intraperitoneal) in B6D2F1 (BDF1) mice
Conditions: endpoint: median survival time, higher = longer survival
In short: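 Read-out: survival or tumor size, given as treated/control ratio. Controls received vehicle only; animals bore transplantable tumors.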

[1] = dose: 12.5 mg/kg/injection, schedule: Q01DX009 (ip), vehicle: saline
[2] = dose: 25.0 mg/kg/injection, schedule: Q01DX009 (ip), vehicle: saline
[3] = dose: 50.0 mg/kg/injection, schedule: Q01DX009 (ip), vehicle: saline
[4] = dose: 100.0 mg/kg/injection, schedule: Q01DX009 (ip), vehicle: saline
[5] = dose: 100.0 mg/kg/injection, schedule: Q04DX003 (ip), vehicle: saline
[6] = dose: 200.0 mg/kg/injection, schedule: Q04DX003 (ip), vehicle: saline
[7] = dose: 400.0 mg/kg/injection, schedule: Q04DX003 (ip), vehicle: saline
[8] = dose: 12.5 mg/kg/injection, schedule: Q01DX009 (ip), vehicle: Klucel (hydroxypropylcellulose) (HPC)
[9] = dose: 50.0 mg/kg/injection, schedule: Q01DX009 (ip), vehicle: Klucel (hydroxypropylcellulose) (HPC)
[10] = dose: 100.0 mg/kg/injection, schedule: Q01DX009 (ip), vehicle: Klucel (hydroxypropylcellulose) (HPC)
[11] = dose: 200.0 mg/kg/injection, schedule: Q01DX009 (ip), vehicle: Klucel (hydroxypropylcellulose) (HPC)

`CC1OC(O[C@H]2C[C@](O)(C(C)O)Cc3c(O)c4c(c(O)c32)C(=O)c2c(O)cccc2C4=O)CC(NC=O)C1O` (some centres undefined) was tested, and the T/C (dose: 2.0 micrograms/kg/injection, schedule: Q01DX009 (ip), vehicle: saline) was 154 % of control, the T/C (dose: 4.0 micrograms/kg/injection, schedule: Q01DX009 (ip), vehicle: saline) was 154 % of control and the T/C (dose: 8.0 micrograms/kg/injection, schedule: Q01DX009 (ip), vehicle: saline) was 192 % of control. For the same compound, the T/C (dose: 16.0 micrograms/kg/injection, schedule: Q01DX009 (ip), vehicle: saline) was 249 % of control and the T/C (dose: 32.0 micrograms/kg/injection, schedule: Q01DX009 (ip), vehicle: saline) was 195 % of control.
With `C=C1C/C(=C/C)C(=O)O[C@@H]2CCN3CC=C(COC(=O)[C@]1(C)O)[C@H]23` the T/C [1] was 109 % of control, the T/C [2] was 116 % of control and the T/C [3] was 116 % of control. The T/C [4] was 107 % of control.
In the case of `COc1ccccc1NC(=O)c1cc2ccccc2cc1O`, the T/C [4] is reported as 121 % of control and the T/C (dose: 400.0 mg/kg/injection, schedule: Q01DX009 (ip), vehicle: saline) is reported as 118 % of control.
With `CCNCCCCCCNCC` the T/C [1] was 98 % of control and the T/C [2] was 90 % of control.
`N#[N+]c1c(O)cc(S(=O)(=O)O)c2ccccc12` was tested, and the T/C [5] was 95 % of control, the T/C [6] was 93 % of control and the T/C [7] was 90 % of control.
In the case of `COc1cc(Cl)c(CC(=O)c2c[nH]c3ccccc23)cc1OC`, the T/C (dose: 6.25 mg/kg/injection, schedule: Q01DX009 (ip), vehicle: saline with Tween-80) is reported as 100 % of control and the T/C (dose: 12.5 mg/kg/injection, schedule: Q01DX009 (ip), vehicle: saline with Tween-80) is reported as 89 % of control.
With `COC(=O)Nc1nc2ccc(C(=O)c3ccccc3)cc2[nH]1` the T/C (dose: 2.0 mg/kg/injection, schedule: Q04DX003 (ip), vehicle: saline with Tween-80) was 95 % of control, the T/C (dose: 4.0 mg/kg/injection, schedule: Q04DX003 (ip), vehicle: saline with Tween-80) was 106 % of control and the T/C (dose: 8.0 mg/kg/injection, schedule: Q04DX003 (ip), vehicle: saline with Tween-80) was 101 % of control. The T/C (dose: 15.0 mg/kg/injection, schedule: Q04DX003 (ip), vehicle: saline with Tween-80) was 114 % of control, the T/C (dose: 16.0 mg/kg/injection, schedule: Q04DX003 (ip), vehicle: saline with Tween-80) was 103 % of control and the T/C (dose: 200.0 mg/kg/injection, schedule: Q04DX003 (oral), vehicle: saline with Tween-80) was 115 % of control.
For `CC(=O)[O][Hg][c]1c(C)c(C)c(C)c(C)c1C`, the T/C (dose: 2.5 mg/kg/injection, schedule: Q01DX009 (ip), vehicle: Klucel (hydroxypropylcellulose) (HPC)) was 99 % of control, the T/C (dose: 5.0 mg/kg/injection, schedule: Q01DX009 (ip), vehicle: Klucel (hydroxypropylcellulose) (HPC)) was 98 % of control and the T/C (dose: 10.0 mg/kg/injection, schedule: Q01DX009 (ip), vehicle: Klucel (hydroxypropylcellulose) (HPC)) was 90 % of control. For the same compound, the T/C [8] was 90 % of control.
In the case of `CCC[CH2][Sn]([Cl])([CH2]CCC)[S]C(=S)NCCNC(=S)[S][Sn]([Cl])([CH2]CCC)[CH2]CCC`, the T/C (dose: 3.12 mg/kg/injection, schedule: Q01DX009 (ip), vehicle: Klucel (hydroxypropylcellulose) (HPC)) is reported as 94 % of control, the T/C (dose: 6.25 mg/kg/injection, schedule: Q01DX009 (ip), vehicle: Klucel (hydroxypropylcellulose) (HPC)) is reported as 96 % of control and the T/C [8] is reported as 101 % of control.
For `c1ccc(-c2nc3cnccc3o2)cc1`, the T/C (dose: 3.13 mg/kg/injection, schedule: Q04DX003 (ip), vehicle: Klucel (hydroxypropylcellulose) (HPC)) was 91 % of control, the T/C (dose: 6.25 mg/kg/injection, schedule: Q04DX003 (ip), vehicle: Klucel (hydroxypropylcellulose) (HPC)) was 100 % of control and the T/C (dose: 12.5 mg/kg/injection, schedule: Q04DX003 (ip), vehicle: Klucel (hydroxypropylcellulose) (HPC)) was 91 % of control and 97 % of control.
`C#CC(C)(O)c1ccccc1` (centres undefined) was tested, and the T/C [9] was 100 % of control, the T/C [10] was 100 % of control and the T/C [11] was 103 % of control.
For `Nc1ccc(F)cc1[N+](=O)[O-]`, the T/C (dose: 75.0 mg/kg/injection, schedule: Q01DX009 (ip), vehicle: Klucel (hydroxypropylcellulose) (HPC)) was 122 % of control, the T/C (dose: 150.0 mg/kg/injection, schedule: Q01DX009 (ip), vehicle: Klucel (hydroxypropylcellulose) (HPC)) was 105 % of control and the T/C (dose: 300.0 mg/kg/injection, schedule: Q01DX009 (ip), vehicle: Klucel (hydroxypropylcellulose) (HPC)) was 102 % of control.
For `COc1ccc(CCN2CCCC2C(=O)O)cc1OC` (centres undefined), the T/C [5] was 100 % of control, the T/C [6] was 105 % of control and the T/C [7] was 96 % of control.
For `Nc1ccc(-c2ccc(N)c(Cl)c2)cc1Cl`, the T/C (dose: 100.0 mg/kg/injection, schedule: Q04DX003 (ip), vehicle: Klucel (hydroxypropylcellulose) (HPC)) was 111 % of control, the T/C (dose: 200.0 mg/kg/injection, schedule: Q04DX003 (ip), vehicle: Klucel (hydroxypropylcellulose) (HPC)) was 108 % of control and the T/C (dose: 400.0 mg/kg/injection, schedule: Q04DX003 (ip), vehicle: Klucel (hydroxypropylcellulose) (HPC)) was 100 % of control.
With `CC12CCC3C(CCC4CC(OC(=O)Cc5ccc(N(CCCl)CCCl)cc5)CCC43C)C1CCC(=O)N2` (centres undefined) the T/C (dose: 0.75 mg/kg/injection, schedule: Q01DX009 (ip), vehicle: saline) was 113 % of control, the T/C (dose: 1.5 mg/kg/injection, schedule: Q01DX009 (ip), vehicle: saline with Tween-80) was 110 % of control and the T/C (dose: 1.5 mg/kg/injection, schedule: Q01DX009 (ip), vehicle: saline) was 121 % of control. The T/C (dose: 3.0 mg/kg/injection, schedule: Q01DX009 (ip), vehicle: saline) was 121 % of control and the T/C (dose: 12.0 mg/kg/injection, schedule: Q01DX009 (ip), vehicle: saline) was 154 % of control.
With `CC1(C)N=C(N)N=C(N)N1c1ccc(CNC(=O)Nc2ccc(S(=O)(=O)F)cc2)cc1` the T/C (dose: 50.0 mg/kg/injection, schedule: Q04DX003 (ip), vehicle: saline) was 112 % of control.
`CNCCOC(c1ccccc1)c1ccccc1C` (centres undefined) was tested, and the T/C (dose: 3.12 mg/kg/injection, schedule: Q01DX009 (ip), vehicle: saline) was 97 % of control, the T/C (dose: 6.25 mg/kg/injection, schedule: Q01DX009 (ip), vehicle: saline) was 97 % of control and the T/C [1] was 102 % of control. For the same compound, the T/C [2] was 100 % of control and the T/C [3] was 104 % of control.
`N#Cc1ccc(/C=C/C(=O)c2ccccc2)cc1` was tested, and the T/C [10] was 101 % of control and the T/C [11] was 101 % of control.
For `CC(C)n1c(=S)[nH]c2ccccc2c1=O`, the T/C (dose: 16.5 mg/kg/injection, schedule: Q01DX009 (ip), vehicle: saline with Tween-80) was 102 % of control, the T/C (dose: 25.0 mg/kg/injection, schedule: Q01DX009 (ip), vehicle: saline with Tween-80) was 94 % of control and the T/C (dose: 37.5 mg/kg/injection, schedule: Q01DX009 (ip), vehicle: saline with Tween-80) was 100 % of control. For the same compound, the T/C [10] was 95 % of control, the T/C (dose: 100.0 mg/kg/injection, schedule: Q01DX009 (ip), vehicle: saline with Tween-80) was 87 % of control and the T/C [4] was 117 % of control. The T/C [11] was 90 % of control.
With `O=C1NC(=O)C([N+](=O)[O-])=C(O)C1=O` the T/C (dose: 75.0 mg/kg/injection, schedule: Q04DX003 (ip), vehicle: other) was 105 % of control and the T/C (dose: 150.0 mg/kg/injection, schedule: Q04DX003 (ip), vehicle: other) was 95 % of control.
`CC(CCCN(CCCl)CCCl)Nc1ccnc2cc(Cl)ccc12` (centres undefined) was tested, and the T/C (dose: 0.25 mg/kg/injection, schedule: Q01DX009 (ip), vehicle: saline + alcohol) was 94 % of control, the T/C (dose: 0.25 mg/kg/injection, schedule: Q04DX003 (ip), vehicle: saline + alcohol) was 100 % of control and the T/C (dose: 0.5 mg/kg/injection, schedule: Q01DX009 (ip), vehicle: saline + alcohol) was 94 % of control. For the same compound, the T/C (dose: 0.5 mg/kg/injection, schedule: Q04DX003 (ip), vehicle: saline + alcohol) was 106 % of control, the T/C (dose: 1.0 mg/kg/injection, schedule: Q01DX009 (ip), vehicle: saline + alcohol) was 97 % of control and the T/C (dose: 1.0 mg/kg/injection, schedule: Q04DX003 (ip), vehicle: saline + alcohol) was 112 % of control. For the same compound, the T/C (dose: 2.0 mg/kg/injection, schedule: Q01DX009 (ip), vehicle: saline + alcohol) was 88 % of control and the T/C (dose: 2.0 mg/kg/injection, schedule: Q04DX003 (ip), vehicle: saline + alcohol) was 118 % of control.
In the case of `C#CC1(OCC2CN(c3ccccc3)C(=O)O2)CCCCC1` (centres undefined), the T/C (dose: 25.0 mg/kg/injection, schedule: Q01DX009 (ip), vehicle: Klucel (hydroxypropylcellulose) (HPC)) is reported as 93 % of control, the T/C [9] is reported as 95 % of control and the T/C [10] is reported as 95 % of control. The T/C (dose: 100.0 mg/kg/injection, schedule: Q04DX003 (ip), vehicle: saline with Tween-80) was 97 % of control, the T/C [11] was 102 % of control and the T/C (dose: 200.0 mg/kg/injection, schedule: Q04DX003 (ip), vehicle: saline with Tween-80) was 102 % of control. For the same compound, the T/C (dose: 400.0 mg/kg/injection, schedule: Q01DX009 (ip), vehicle: Klucel (hydroxypropylcellulose) (HPC)) was 91 % of control and the T/C (dose: 400.0 mg/kg/injection, schedule: Q04DX003 (ip), vehicle: saline with Tween-80) was 100 % of control.
